Data from US20220387411A1, “TARGETED AUTOPHAGY CONJUGATES AND METHODS” (Frontier Medicines Corporation, priority 2019, published 2022).

biological target: T1, Recombinant pure human SQSTM1 protein (Homo sapiens, UniProt Q13501); assay: Inhibition of IA-Rhodamine labeling of SQSTM1 (gel-based, densitometry); format: binding; conditions: 50 μM of test compound (initial screen); 30 min at 37° C., then 100 nM IA-Rhodamine 1 hour; inhibition of target labeling by densitometry
T1 construct: purchased Origene
T1 sequence (Q13501 whole entry): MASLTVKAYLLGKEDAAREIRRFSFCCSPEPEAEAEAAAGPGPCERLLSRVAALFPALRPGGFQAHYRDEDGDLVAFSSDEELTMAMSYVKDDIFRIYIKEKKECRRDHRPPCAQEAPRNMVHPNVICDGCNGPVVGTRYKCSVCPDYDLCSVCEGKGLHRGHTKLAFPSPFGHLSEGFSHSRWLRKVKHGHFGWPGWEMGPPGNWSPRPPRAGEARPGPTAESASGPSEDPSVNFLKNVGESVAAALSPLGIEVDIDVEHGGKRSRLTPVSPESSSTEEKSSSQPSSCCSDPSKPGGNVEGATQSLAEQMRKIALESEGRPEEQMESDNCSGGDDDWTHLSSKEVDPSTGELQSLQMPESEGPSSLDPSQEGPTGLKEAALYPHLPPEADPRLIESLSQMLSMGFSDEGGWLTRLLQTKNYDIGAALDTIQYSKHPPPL
Experimental: Recombinant pure human SQSTM1 protein was purchased from Origene. SQSTM1 protein (0.21 μg) was diluted into 50 μL of PBS and 1 μL of either DMSO (vehicle) or covalently acting small molecule (test compound) to achieve the desired concentration. After 30 min. at 37° C., the samples were treated with 100 nM IA-Rhodamine (tetramethylrhodamine-5-iodoacetamide dihydroiodide; Setareh Biotech, 6222, prepared in anhydrous DMSO) for 1 hour at room temperature. Samples were then diluted with 20 μL of 4× reducing Laemmli SDS sample loading buffer (Alfa Aesar) and heated at 90° C. for 5 min. The samples were separated on precast 4-20% Criterion TGX gels (Bio-Rad Laboratories, Inc.). Fluorescent imaging was performed on a ChemiDoc MP instrument (Bio-Rad Laboratories, Inc.), and inhibition of target labeling was assessed by densitometry using ImageJ software. The initial screen was performed using 50 μM of test compound.

For O=C(CCl)N1CCC(O)C(F)CC1 (centres unmarked) [Compound 48, 2-chloro-1-(4-fluoro-5-hydroxyazepan-1-yl)ethanone], which inhibition at 50 µM is on record?
Its inhibition at 50 µM is 7%.

For CC1CN(C(=O)CCl)CCCO1 (centres unmarked) [Compound 22, 2-chloro-1-(2-methyl-1,4-oxazepan-4-yl)ethanone], which “% inhibition” value is on record?
The value was “not active”.

CCOC(=O)c1cnc2n1CCN(C(=O)CCl)CC2 [Compound 54, Ethyl 7-(2-chloroacetyl)-6,7,8,9-tetrahydro-5H-imidazo[1,2-d][1,4]diazepine-3-carboxylate] was tested. Which inhibition at 50 µM did it give?
The inhibition at 50 µM was 46%.

For CC1CCN(C(=O)CCl)CCC1CNC(=O)OCc1ccccc1 (centres unmarked) [Compound 41, Benzyl ((1-(2-chloroacetyl)-5-methylazepan-4-yl)methyl)carbamate], which inhibition at 50 µM is on record?
The inhibition at 50 µM was 54%.

For C[C@H]1CN(C(=O)OC(C)(C)C)CCCN1C(=O)CCl [Compound 12, (S)-tert-butyl 4-(2-chloroacetyl)-3-methyl-1,4-diazepane-1-carboxylate], which “% inhibition” value is on record?
Its value is “not active”.

O=C(CCl)N(Cc1ccccc1)C1CCCC[C@H]1CO (stereo in doubt) [Compound 3, N-benzyl-2-chloro-N-(cis-2-(hydroxymethyl)cyclohexyl)acetamide] was tested. Which inhibition at 50 µM did it give?
The inhibition at 50 µM was 58%.

CCOC(=O)c1ncn2c1CN(C(=O)CCl)CCC2 [Compound 53, Ethyl 8-(2-chloroacetyl)-6,7,8,9-tetrahydro-5H-imidazo[1,5-a][1,4]diazepine-1-carboxylate] was tested. Which inhibition at 50 µM did it give?
The inhibition at 50 µM was 52%.

How did the inhibition at 50 µM turn out when CC(C)N(C(=O)CCl)C1CCCNCC1 (centres unmarked) [Compound 64, N-(azepan-4-yl)-2-chloro-N-isopropyl-acetamide] was run?
Its inhibition at 50 µM is 22%.

CC(C)(C)OC(=O)N1CCC(N(C(=O)CCl)C2CC2)CC1 [Compound 6, Tert-butyl 4-(2-chloro-N-cyclopropylacetamido)piperidine-1-carboxylate] was tested. Which inhibition at 50 µM did it give?
Its inhibition at 50 µM is 56%.

How did the inhibition at 50 µM turn out when O=C(CCl)N(Cc1ccccc1)[C@H]1CCC[C@@H]1O [Compound 4, N-benzyl-2-chloro-N-((1S,2S)-2-hydroxycyclopentyl)acetamide] was run?
The inhibition at 50 µM was 18%.

How did the inhibition at 50 µM turn out when O=C(CCl)N1CCCN(c2ccc(F)cn2)CC1 [Compound 16, 2-chloro-1-(4-(5-fluoropyridin-2-yl)-1,4-diazepan-1-yl)ethanone] was run?
Its inhibition at 50 µM is 20%.

O=C(NCC1(F)CCCN(C(=O)CCl)CC1)OCc1ccccc1 (centres unmarked) [Compound 38, Benzyl ((1-(2-chloroacetyl)-4-fluoroazepan-4-yl)methyl)carbamate] was tested. Which inhibition at 50 µM did it give?
The inhibition at 50 µM was 40%.

For O=C1CCCC2(CNCCN(C(=O)CCl)C2)N1 (centres unmarked) [Compound 72, 8-(2-chloroacetyl)-1,8,11-triazaspiro[5.6]dodecan-2-one], which “% inhibition” value is on record?
The value was “not active”.

For O=C(CCl)N1CCOCC2(CNCCO2)C1 (centres unmarked) [Compound 71, 2-chloro-1-(1,8-dioxa-4,11-diazaspiro[5.6]dodecan-11-yl)ethanone], which “% inhibition” value is on record?
Its value is “not active”.

For CC(C)(C)OC(=O)N1CCCCC2(CCCCN(C(=O)CCl)C2)C1 (centres unmarked) [Compound 58, Tert-butyl 9-(2-chloroacetyl)-2,9-diazaspiro[6.6]tridecane-2-carboxylate], which inhibition at 50 µM is on record?
The inhibition at 50 µM was 82%.

With O=C(CCl)N1CC2CNC(C2)C1 (centres unmarked) [Compound 73, 2-chloro-1-(3,6-diazabicyclo[3.2.1]octan-3-yl)ethanone] as the compound, how does the inhibition at 50 µM read?
The inhibition at 50 µM was 38%.

For CC1(F)CCCCN(C(=O)CCl)C1 (centres unmarked) [Compound 29, 2-chloro-1-(3-fluoro-3-methylazepan-1-yl)ethanone], which inhibition at 50 µM is on record?
Its inhibition at 50 µM is 38%.

How did the inhibition at 50 µM turn out when CCN1CCCN(C(=O)CCl)CC1 [Compound 14, 2-chloro-1-(4-ethyl-1,4-diazepan-1-yl)ethan-1-one] was run?
Its inhibition at 50 µM is 38%.

For O=C(CCl)N(C1CCNCC1)C1CCOCC1 [Compound 63, 2-chloro-N-(piperidin-4-yl)-N-(tetrahydro-2H-pyran-4-yl)acetamide], which “% inhibition” value is on record?
The value was “not active”.

For O=C(NC1CCCN(C(=O)CCl)CC1)OCc1ccccc1 (centres unmarked) [Compound 46, Benzyl (1-(2-chloroacetyl)azepan-4-yl)carbamate], which inhibition at 50 µM is on record?
Its inhibition at 50 µM is 31%.

How did the inhibition at 50 µM turn out when O=C1CC(N(Cc2ccccc2)C(=O)CCl)CN1Cc1ccccc1 (centres unmarked) [Compound 11, N-benzyl-N-(1-benzyl-5-oxo-pyrrolidin-3-yl)-2-chloro-acetamide] was run?
Its inhibition at 50 µM is 57%.

Which inhibition at 50 µM does the source give for CC1(O)CCCN(C(=O)CCl)CC1 (centres unmarked) [Compound 49, 2-chloro-1-(4-hydroxy-4-methylazepan-1-yl)ethanone] here?
The inhibition at 50 µM was 9%.

CC(C)(C)OC(=O)N1CCCC12CCCN(C(=O)CCl)CC2 (centres unmarked) [Compound 57, Tert-butyl 8-(2-chloroacetyl)-1,8-diazaspiro[4.6]undecane-1-carboxylate] was tested. Which inhibition at 50 µM did it give?
Its inhibition at 50 µM is 58%.

Which inhibition at 50 µM does the source give for O=C(CCl)N1CCCC2(CCCN2)CC1 (centres unmarked) [Compound 69, 2-chloro-1-(1,8-diazaspiro[4.6]undecan-8-yl)ethanone] here?
Its inhibition at 50 µM is 22%.

For O=C(CCl)N(Cc1ccccc1)[C@H]1COC[C@@H]1O [Compound 5, N-benzyl-2-chloro-N-((3S,4R)-4-hydroxytetrahydrofuran-3-yl)acetamide], which “% inhibition” value is on record?
Its value is 25%.

CC1(CNC(=O)OCc2ccccc2)CCCCN(C(=O)CCl)C1 (centres unmarked) [Compound 26, Benzyl ((1-(2-chloroacetyl)-3-methylazepan-3-yl)methyl)carbamate] was tested. Which inhibition at 50 µM did it give?
The inhibition at 50 µM was 70%.

For O=C(NCC1(O)CCCN(C(=O)CCl)CC1)OCc1ccccc1 (centres unmarked) [Compound 34, Benzyl ((1-(2-chloroacetyl)-4-hydroxyazepan-4-yl)methyl)carbamate], which inhibition at 50 µM is on record?
The inhibition at 50 µM was 14%.

How did the inhibition at 50 µM turn out when CC1CN(C(=O)CCl)CCCC1CNC(=O)OCc1ccccc1 (centres unmarked) [Compound 28, Benzyl ((1-(2-chloroacetyl)-3-methylazepan-4-yl)methyl)carbamate] was run?
Its inhibition at 50 µM is 59%.

How did the inhibition at 50 µM turn out when O=C(CCl)N(C1CCNCC1)C1CC1 [Compound 62, 2-chloro-N-cyclopropyl-N-(4-piperidyl)acetamide] was run?
The inhibition at 50 µM was 27%.

For CC1CCCCN(C(=O)CCl)C1 (centres unmarked) [Compound 31, 2-chloro-1-(3-methylazepan-1-yl)ethanone], which inhibition at 50 µM is on record?
The inhibition at 50 µM was 39%.

With CC1CCN(C(=O)CCl)CCC1=O (centres unmarked) [Compound 42, 1-(2-chloroacetyl)-5-methylazepan-4-one] as the compound, how does the inhibition at 50 µM read?
Its inhibition at 50 µM is 32%.

Which “% inhibition” value does the source give for CC1CCN(C(=O)CCl)CCC1(F)F (centres unmarked) [Compound 40, 2-chloro-1-(4,4-difluoro-5-methylazepan-1-yl)ethanone] here?
The value was “not active”.

Which inhibition at 50 µM does the source give for CC1(O)CCCCN(C(=O)CCl)C1 (centres unmarked) [Compound 39, 2-chloro-1-(3-hydroxy-3-methylazepan-1-yl)ethanone] here?
Its inhibition at 50 µM is 20%.

How did the inhibition at 50 µM turn out when COC(=O)c1ccc(CN(C(=O)CCl)C2CCNCC2)[nH]1 [Compound 65, Methyl 5-[[(2-chloroacetyl)-(4-piperidyl)amino]methyl]-1H-pyrrole-2-carboxylate] was run?
The inhibition at 50 µM was 7%.

With CCOC(=O)C1(C)CCCCN(C(=O)CCl)C1 (centres unmarked) [Compound 25, Ethyl 1-(2-chloroacetyl)-3-methylazepane-3-carboxylate] as the compound, how does the inhibition at 50 µM read?
The inhibition at 50 µM was 31%.

CC(C)(C)OC(=O)N1CC2CC1CN(C(=O)CCl)C2 (centres unmarked) [Compound 61, Tert-butyl 3-(2-chloroacetyl)-3,6-diazabicyclo[3.2.1]octane-6-carboxylate] was tested. Which inhibition at 50 µM did it give?
Its inhibition at 50 µM is 18%.

Which inhibition at 50 µM does the source give for COC(=O)c1ccc(CN(C(=O)CCl)C2CCN(C(=O)OC(C)(C)C)CC2)[nH]1 [Compound 9, Tert-butyl 4-(2-chloro-N-((5-(methoxycarbonyl)-1H-pyrrol-2-yl)methyl)acetamido) piperidine-1-carboxylate] here?
Its inhibition at 50 µM is 64%.

With CC1(CNC(=O)OCc2ccccc2)CCCN(C(=O)CCl)CC1 (centres unmarked) [Compound 35, Benzyl ((1-(2-chloroacetyl)-4-methylazepan-4-yl)methyl)carbamate] as the compound, how does the inhibition at 50 µM read?
The inhibition at 50 µM was 17%.

How did the inhibition at 50 µM turn out when O=C(CCl)N1CCCCC(O)C1 (centres unmarked) [Compound 44, 2-chloro-1-(3-hydroxyazepan-1-yl)ethanone] was run?
The inhibition at 50 µM was 13%.

For CC(C)(C)OC(=O)NC1CCCCN(C(=O)CCl)C1 (centres unmarked) [Compound 37, Tert-butyl (1-(2-chloroacetyl)azepan-3-yl)carbamate], which inhibition at 50 µM is on record?
Its inhibition at 50 µM is 30%.

For O=C(CCl)N1CCCCC(O)(CF)C1 (centres unmarked) [Compound 32, 2-chloro-1-(3-(fluoromethyl)-3-hydroxyazepan-1-yl)ethanone], which inhibition at 50 µM is on record?
Its inhibition at 50 µM is 17%.

How did the inhibition at 50 µM turn out when O=C(CCl)N1CCOCC(F)(F)C1 [Compound 50, 2-chloro-1-(6,6-difluoro-1,4-oxazepan-4-yl)ethanone] was run?
The inhibition at 50 µM was 17%.

For O=C(CCl)N1CCCCC2(CCCCNC2)C1 (centres unmarked) [Compound 70, 2-chloro-1-(2,9-diazaspiro[6.6]tridecan-2-yl)ethanone], which inhibition at 50 µM is on record?
The inhibition at 50 µM was 22%.

Which inhibition at 50 µM does the source give for CC1(C)CCCN(C(=O)CCl)CC1 [Compound 23, 2-chloro-1-(4,4-dimethylazepan-1-yl)ethanone] here?
The inhibition at 50 µM was 21%.

How did the inhibition at 50 µM turn out when CC(C)(C)OC(=O)N1CCC(N(C(=O)CCl)C2CCOCC2)CC1 [Compound 7, Tert-butyl 4-(2-chloro-N-(tetrahydro-2H-pyran-4-yl)acetamido)piperidine-1-carboxylate] was run?
The inhibition at 50 µM was 61%.

Which inhibition at 50 µM does the source give for CC1CCCCCN1C(=O)CCl (centres unmarked) [Compound 13, 2-chloro-1-(2-methylazepan-1-yl)ethan-1-one] here?
Its inhibition at 50 µM is 49%.

O=C(NCC1CCCCN(C(=O)CCl)C1)OCc1ccccc1 (centres unmarked) [Compound 27, Benzyl ((1-(2-chloroacetyl)azepan-3-yl)methyl)carbamate] was tested. Which inhibition at 50 µM did it give?
The inhibition at 50 µM was 58%.

How did the inhibition at 50 µM turn out when O=C(CCl)N1CCC(F)C(F)(F)CC1 (centres unmarked) [Compound 43, 2-chloro-1-(4,4,5-trifluoroazepan-1-yl)ethanone] was run?
The inhibition at 50 µM was 25%.

How did the inhibition at 50 µM turn out when NC1CCCCN(C(=O)CCl)C1 (centres unmarked) [Compound 68, 1-(3-aminoazepan-1-yl)-2-chloro-ethanone] was run?
Its inhibition at 50 µM is 44%.

With O=C(CCl)N1Cc2ccnn2CC(O)C1 (centres unmarked) [Compound 55, 2-chloro-1-(7-hydroxy-7,8-dihydro-4H-pyrazolo[1,5-a][1,4]diazepin-5(6H)-yl)ethanone] as the compound, how does the inhibition at 50 µM read?
Its inhibition at 50 µM is 35%.
